One block for each compound: values may come before it.
Assays:
r(CCUG)12-MBNL1 complex = assay: TR-FRET assay, disruption of pre-formed r(CCUG)12-MBNL1 complex; assay type: biochemical; conditions: in vitro, read-out: IC50 for disrupting an r(CCUG)12-MBNL1 complex
Excerpt: Of the 44 hits, 38 contained a similar substituted N2-phenylquinazoline-2,4-diamine core, while the other hits contained benzimidazoles and indazoles (Figure S2). Importantly, these 44 compounds are drug-like as they have similar physicochemical properties to the rest of the library and to known-drugs in Drug Bank (FIG. 2A). On average, the 44 hit compounds have a molecular weight of 327±35 g/mol, a cLogP of 3.2±0.9. TPSA of 76±15 Å, and 2.5±0.9 hydrogen bond donors. The in vitro potencies (IC50s) of the 44 compounds were then measured in the TR-FRET assay, affording seven compounds (1-7) with IC50s <50 μM (highlighted in red in FIGS. 2B & 2C).
In vitro IC50 measurements: IC50 measurements for disruption of r(CCUG)12-MBNL1 complex was completed using a previously reported TR-FRET assay with minor modifications.^23, 24 Briefly, 5′-biotinylated r(CCUG)12 (SEQ ID NO: 15) was folded in 1× Folding Buffer (20 mM HEPES, pH 7.5, 110 mM KCl, and 10 mM NaCl) at 60° C. for 5 min then cooled to room temperature. The buffer was adjusted to 1× Assay Buffer (20 mM HEPES, pH 7.5, 110 mM KCl, 10 mM NaCl, 2 mM MgCl2, 2 mM CaCl2), 5 mM DTT. 0.1% BSA, and 0.5% Tween-20).
Next, MBNL1-His6 was added, and the samples were incubated at room temperature for 15 min. […] The samples were incubated for 30 min at room temperature and added to a white 384-well plate, where TR-FRET was measured on a Molecular Devices SpectraMax M5 plate reader using an excitation wavelength of 345-nm and a 420-nm cutoff. The ratios of fluorescence intensity at 545 and 665 nm were calculated, and ratios in the absence of a compound and in the absence of RNA were used to calculate percent disruption. […]
[formula] • where y is ratio of fluorescence intensities at 545 nm and 665 nm (F545/F665), x is the concentration of a compound, B is F545/F665 value at max FRET effect (solution has RNA and protein but no compound added); A is F545/F665 value at min FRET effect (solution has antibodies but no RNA, protein, or compound); and the IC50 is the concentration of a compound where half of the protein is displaced by a compound.

[1] = tested on: DM2 patient-derived fibroblasts; assay: Cell viability by CellTiter-Glo; assay type: cell-based; conditions: for toxicity in DM2 patient-derived fibroblasts: at 5 μM; for toxicity as stated in legend of FIG. 3C: DM2 fibroblasts
Protocol: (§1) Cell lines and cell culture: Compounds were tested in two cell lines: (i) DM2 patient-derived fibroblasts (generous gift from University of Florida, Center for NeuroGenetics) and (ii) fibroblasts from a healthy donor (wild-type; WT GM07492; Coriell Institute). Cells were maintained at 37° ° C. with 5% CO2. DM2 fibroblasts were cultured in DMEM/high glucose (HyClone) supplemented with 20% FBS (Sigma) and 1% Antibiotic-Antimycotic solution (Corning). Wild-type fibroblasts were cultured in MEM (Corning) supplemented with 10% FBS, 1% Glutagro (Corning), and 1% Antibiotic-Antimycotic solution.
Evaluation of cell viability: Compound toxicity in DM2 fibroblasts was evaluated using a CellTiter-Glo Kit (Promega) as described in the manufacturer's protocol. Briefly, after 48 h treatment in 96-wells plates, 100 μL of the CellTiter-Glo reagent was added to each well. The plate was then incubated at room temperature for 10 min, and luminescence was measured using BioTek FLX-800 luminescence plate reader (n=6 replicates; 1 independent experiment).

[2] = tested on: IR exon 11 alternative splicing in DM2 patient-derived fibroblasts; assay: Rescue of IR exon 11 splicing via RT-PCR in DM2 fibroblasts; assay type: cell-based
Protocol: as §1
Evaluation of pre-mRNA splicing via RT-PCR: Pre-mRNA splicing was analyzed as previously described.^10 Briefly, cells were grown in 6-well plates and treated with the desired compound in growth medium at ˜40% confluency. After 48 h, the cells were lysed, and total RNA was harvested using a Zymo Quick RNA Miniprep Kit. Approximately 1 μg of total RNA was reverse transcribed using a qScript cDNA synthesis kit (20 μL of total reaction volume, Quanta BioSciences); 2 μL of the RT reaction was used for PCR using GoTaq DNA polymerase (Promega). RT-PCR products were observed after 35 cycles of 95° C. for 30 s, 58° C. for 30s, 72 °C for 1 min, and a final extension at 72° C. for 5 min. Products were separated on a 2% agarose gel (110 V for 1 h in 13TBE buffer), visualized by staining with ethidium bromide, and imaged using a Typhoon 9410 variable mode imager. Gels were quantified using ImageJ. Percent rescue was calculated by dividing the difference between treated and untreated DM2 samples by the difference between untreated DM2 and WT samples (Equation 2).

[3] = tested on: r(GACAGCCUGCUGUC)2 duplex, RNA containing a single 2×2 CU/UC internal loop; assay: NMR spectroscopy (WaterLOGSY, 1D) of binding to RNA with one 2×2 CU/UC internal loop
Excerpt: The binding 1-7 an RNA containing a single 2×2 CU/UC was further studied by NMR spectroscopy. […] Aromatic protons of the unbound RNA were assigned via a 2D NOESY spectrum (Figure S7).
NMR samples preparation: A self-complementary RNA construct, r(5′-GACAGCCUGCUGUC-3′), SEQ ID NO:12, was purchased from GE Healthcare Dharmacon, Inc., deprotected according to the manufacturer's recommended protocol, and desalted with PD-10 columns (GE Healthcare, cat: 17-0851-01) also per the manufacturer's protocol. RNA samples were dissolved in NMR Buffer [10 mM KH2PO4/K2HPO4 and 0.05 mM EDTA (pH 6.0)] and folded by heating to 95° C. for 3 min and slowly cooling to room temperature.
NMR spectroscopy: NMR spectra were acquired at 25° C. on Bruker Avance III 600 and 700 MHZ spectrometers equipped with cryoprobes. 1D NMR spectra were acquired on samples containing 100 μM of RNA alone in 100% D20. Compounds 38, 40, 41, and 42 were each titrated into separate samples at 0.5, 1.0, 1.5, and 2.0 compound: RNA molar ratios. WaterLOGSY (water-ligand observed via gradient spectroscopy) spectra^29 were acquired on samples containing 300 μM of each compound alone or in the presence of 15 μM of RNA at a 20:1 compound:RNA ratio in H2O, to which D2O was added to 5% by volume. WaterLOGSY spectra were phased to give negative NOEs for non-binders. […]

IC50 (r(CCUG)12-MBNL1 complex): 12.7 ± 0.2 µM
SMILES: Cc1ccc2nc(Nc3ccc4c(c3)OCCO4)nc(NCCCO)c2c1 [Compound 58, 3-((2-((2,3-dihydrobenzo[b][1,4]dioxin-6-yl)amino)-6-methylquinazolin-4-yl)amino)propan-1-ol]

SMILES: Cc1ccc2nc(Nc3ccc4nc(NCC(C)(C)O)sc4c3)nc(NCCCO)c2c1 [Compound 78, 3-((2-((2-((2-hydroxy-2-methylpropyl)amino)benzo[d]thiazol-6-yl)amino)-6-methylquinazolin-4-yl)amino)propan-1-ol]
toxicity in DM2 patient-derived fibroblasts [1]: no toxicity | improvement of IR splicing ([2]; at 5 μM): significantly improved IR splicing

IC50 (r(CCUG)12-MBNL1 complex): 48.2 ± 0.07 µM | shifts of RNA H6 and H8 proton resonances in 1D NMR, indicating binding ([3]; compound added to RNA with one 2×2 CU/UC internal loop): Significant shifts in resonances | binding to the RNA by waterLOGSY spectra ([3]; positive phase signals in the presence of RNA): bound to the RNA
SMILES: OCCCNc1nc(Nc2ccc3c(c2)OCCO3)nc2ccccc12 [Compound 7, 3-((2-((2,3-dihydrobenzo[b][1,4]dioxin-6-yl)amino)quinazolin-4-yl)amino)propan-1-ol]
rescue of IR splicing ([2]; at 1 μM dose, p=0.026): 12±5 | rescue of IR exon 11 splicing ([2]; at 5 μM): ~50%

SMILES: Cc1ccc2nc(Nc3ccc4nc(N5CCOCC5)sc4c3)nc(NCCCO)c2c1 [Compound 72, 3-((6-methyl-2-((2-morpholinobenzo[d]thiazol-6-yl)amino)quinazolin-4-yl)amino)propan-1-ol]
toxicity in DM2 patient-derived fibroblasts [1]: significant toxicity

SMILES: Cc1ccc2nc(Nc3ccc4nc(NC5CCN(Cc6ccccc6)CC5)sc4c3)nc(NCCCO)c2c1 [Compound 71, 3-((2-((2-((1-benzylpiperidin-4-yl)amino)benzo[d]thiazol-6-yl)amino)-6-methylquinazolin-4-yl)amino)propan-1-ol]
toxicity in DM2 patient-derived fibroblasts [1]: significant toxicity

SMILES: Cc1ccc2nc(Nc3ccc4nc(NCC(C)C)sc4c3)nc(NCCCO)c2c1 [Compound 73, 3-((2-((2-(isobutylamino)benzo[d]thiazol-6-yl)amino)-6-methylquinazolin-4-yl)amino)propan-1-ol]
toxicity in DM2 patient-derived fibroblasts [1]: significant toxicity

SMILES: Cc1ccc2nc(Nc3ccc4nc(N(CCO)CCO)sc4c3)nc(NCCCO)c2c1 [Compound 80, 2,2′-((6-((4-((3-hydroxypropyl)amino)-6-methylquinazolin-2-yl)amino)benzo[d]thiazol-2-yl)azanediyl)bis(ethan-1-ol)]
toxicity as stated in legend of FIG. 3C [1]: non-toxic

SMILES: Cc1ccc2nc(Nc3ccc4nc(NCCN(C)C)sc4c3)nc(NCCCO)c2c1 [Compound 79, 3-((2-((2-((2-(dimethylamino)ethyl)amino)benzo[d]thiazol-6-yl)amino)-6-methylquinazolin-4-yl)amino)propan-1-ol]
toxicity as stated in legend of FIG. 3C [1]: non-toxic | toxicity in DM2 patient-derived fibroblasts [1]: no toxicity | rescue of IR splicing ([2]; any concentration studied): did not significantly rescue splicing

SMILES: Cc1ccc2nc(Nc3ccc4nc(N5CCN(C)CC5)sc4c3)nc(NCCCO)c2c1 [Compound 82, 3-((6-methyl-2-((2-(4-methylpiperazin-1-yl)benzo[d]thiazol-6-yl)amino)quinazolin-4-yl)amino)propan-1-ol]
toxicity in DM2 patient-derived fibroblasts [1]: significant toxicity

SMILES: Cc1ccc2nc(Nc3ccc4nc(NCCN5CCOCC5)sc4c3)nc(NCCCO)c2c1 [Compound 74, 3-((6-methyl-2-((2-((2-morpholinoethyl)amino)benzo[d]thiazol-6-yl)amino)quinazolin-4-yl)amino)propan-1-ol]
toxicity in DM2 patient-derived fibroblasts [1]: significant toxicity
